Measurements from US20040171566A1, “Antisense modulation of p38 mitogen activated protein kinase expression” (priority 1999, published 2004).
In the oligonucleotide strings, read from the 5' end, every base follows the letter of its sugar. An asterisk marks phosphorothioate; unmarked linkages are phosphodiester. Other units and linkages are bracketed, terminal groups are in braces. A string of capitals states the bases alone. e = 2'-O-(2-methoxyethyl) (MOE); [5mC] = 5-methylcytosine; d = 2'-deoxy (DNA)

Columns and labels:
human p38β mRNA [1] = experiment: Human p38β mRNA expression in T-24 cells
human p38β mRNA [2] = experiment: Inhibition of human p38β mRNA expression in HUVEC cells, Northern blot; type: cell-based
human p38α mRNA [3] = experiment: Human p38α mRNA expression in T-24 cells; conditions: initial screen of human p38β oligonucleotides
human p38α mRNA [4] = experiment: Effect of human p38β oligonucleotides on human p38α mRNA in HUVEC cells; type: cell-based
Experimental: HUVEC cells were allowed to reach 75% confluency prior to use. The cells were washed twice with warm (37° C.) OPTI-MEM™ (Life Technologies). The cells were incubated in the presence of the appropriate culture medium, without the growth factors added, and the oligonucleotide formulated in LIPOFECTIN7 (Life Technologies), a 1:1 (w/w) liposome formulation of the cationic lipid N-[1-(2,3-dioleyloxy)propyl]-n,n,n-trimethylammonium chloride (DOTMA), and dioleoyl phosphotidylethanolamine (DOPE) in membrane filtered water. HUVEC cells were treated with 100 nM oligonucleotide in 10 μg/ml LIPOFECTIN7. Treatment was for four hours.
Total mRNA was isolated using the RNEASY7 Mini Kit (Qiagen, Valencia, Calif.; similar kits from other manufacturers may also be used), separated on a 1% agarose gel, transferred to HYBOND™-N+ membrane (Amersham Pharmacia Biotech, Piscataway, N.J.), a positively charged nylon membrane, and probed. p38 MAPK probes were made using the Prime-A-Gene7 kit (Promega Corporation, Madison, Wis.), a random primer labeling kit, using mouse p38α or p38β cDNA as a template. […] The G3PDH probe was labeled with REDIVUE™ ^32P-dCTP (Amersham Pharmacia Biotech, Piscataway, N.J.) and Strip-EZ labelling kit (Ambion, Austin, Tex.). mRNA was quantitated by a PhosphoImager (Molecular Dynamics, Sunnyvale, Calif.). […]

rat p38α mRNA [5] = experiment: Inhibition of rat p38α mRNA expression in rat cardiac myocytes, Northern blot; type: cell-based; conditions: 1 μM oligonucleotide, 24 hrs
Experimental: Cells were grown as described in Zechner et al. and transfected with oligonucleotide as described in Example 2. Oligonucleotide concentration was 1 μM. mRNA was isolated 24 hrs after time zero and quantitated using Northern blotting as described in Example 2. An antisense oligonucleotide targeted to JNK-2 was used as a non-specific target control.

rat p38α mRNA [6] = experiment: Inhibition of rat p38α mRNA expression in A-10 cells, Northern blot; type: cell-based; conditions: Rat A-10 cells, 200 nM oligonucleotide, 24 hours
Experimental: Rat p38α antisense oligonucleotides were screened in Rat A-10 cells. A-10 cells (American Type Culture Collection, Manassas, Va.) were grown in high-glucose DMEM (Life Technologies, Gaithersburg, Md.) medium containing 10% fetal calf serum (FCS). Cells were treated with oligonucleotide as described in Example 2. Oligonucleotide concentration was 200 nM. mRNA was isolated 24 hours after time zero and quantitated by Northern blot as described in Example 2.

[7] = 100 nM oligonucleotide in 10 μg/ml LIPOFECTIN, four hours, Northern blot

| Substance | % p38β mRNA Expression (human p38β mRNA [1]; dose 50 nM, relative to control oligonucleotide = 100%) [%] | % p38β mRNA Expression (human p38β mRNA [1]; dose 100 nM, relative to control oligonucleotide = 100%) [%] | % p38β mRNA Expression (human p38β mRNA [1]; dose 200 nM, relative to control oligonucleotide = 100%) [%] | % p38β mRNA Expression (human p38β mRNA [1]; initial screen of human p38β oligonucleotides) [%] | % mRNA EXPRESSION (human p38β mRNA [2]; [7]) [%] | % mRNA Inhibition (human p38β mRNA [2]; [7]) [%] | % mRNA EXPRESSION (human p38β mRNA [2]; dose 10 nM) [%] | % mRNA Inhibition (human p38β mRNA [2]; dose 10 nM) [%] | % mRNA EXPRESSION (human p38β mRNA [2]; dose 25 nM) [%] | % mRNA Inhibition (human p38β mRNA [2]; dose 25 nM) [%] | % mRNA EXPRESSION (human p38β mRNA [2]; dose 50 nM) [%] | % mRNA Inhibition (human p38β mRNA [2]; dose 50 nM) [%] | % mRNA EXPRESSION (human p38β mRNA [2]; dose 100 nM) [%] | % mRNA Inhibition (human p38β mRNA [2]; dose 100 nM) [%] | % p38α mRNA EXPRESSION (human p38α mRNA [3]) [%] | IC50 for p38α compared to p38β (human p38α mRNA [4]) | effect on p38α mRNA expression (human p38α mRNA [4]) | % p38α mRNA EXPRESSION (rat p38α mRNA [5]) [%] | % p38α mRNA INHIBITION (rat p38α mRNA [5]) [%] | % p38α mRNA EXPRESSION (rat p38α mRNA [6]) [%] |
| --- | --- | --- | --- | --- | --- | --- | --- | --- | --- | --- | --- | --- | --- | --- | --- | --- | --- | --- | --- | --- |
| TGCGGCACCTCCCACACGGT (chimeric, phosphorothioate, further chemistry not given here) [ISIS 17893] | 28 | 27 | 16 | 31 | 4 | 96 | 37 | 63 | 18 | 82 | 16 | 84 | 19 | 81 | 61 | approximately 4 fold | showed an effect on p38α mRNA expression |  |  |  |
| GoGoCoCoAsGsAsGsAsCsTsGsAsAsTsGoToAoGoT (antisense eGeGe[5mC]e[5mC]eA*dG*dA*dG*dA*d[5mC]*dT*dG*dA*dA*dT*eGeTeAeGeT) [ISIS 21846] |  |  |  |  |  |  |  |  |  |  |  |  |  |  |  |  |  | 41 | 59 | 8 |
